Data: EPA's ToxRefDB 2

Legend:
rat [1] = settings: Combined chronic toxicity/carcinogenicity, sprague dawley, Oral, Feed, dose end: 104 week, group: systemic
rat [2] = settings: Subchronic oral toxicity in rodents, sprague dawley, Gavage/Intubation, dose end: 90 day, group: systemic
mouse [3] = settings: Carcinogenicity; cd1; Oral; Feed; dose end: 18 month; group: systemic; systemic / in life observation / body weight / body weight
rabbit [4] = settings: Prenatal developmental toxicity study, new zealand white, Oral, Gavage/Intubation, dose end: 18 GD
rat [5] = settings: Combined chronic toxicity/carcinogenicity, sprague dawley, Oral, Feed, dose end: 24 month, group: systemic
rat [6] = settings: Subchronic oral toxicity in rodents, sprague-dawley, Gavage/Intubation, dose end: 90 day, group: systemic, systemic / in life observation / body weight / body weight gain + systemic / in life observation / clinical signs / exophthalamus + systemic…
mouse [7] = settings: Carcinogenicity; cd1; Oral; Feed; dose end: 78 week; group: systemic; systemic / in life observation / body weight / body weight + systemic / in life observation / body weight / body weight gain
dog [8] = settings: Chronic toxicity, beagle, Oral, Feed, dose end: 52 week, group: systemic
rat [9] = settings: Subchronic oral toxicity in rodents, sprague dawley, Gavage/Intubation, dose end: 13 week, group: systemic, systemic / pathology microscopic / adrenal gland / congestion + systemic / pathology microscopic / brain / congestion + systemic / pathology…
dog [10] = settings: Sub-acute repeat dose toxicity; beagle; Injection; Intravenous; dose end: 4 week; group: systemic; systemic / clinical chemistry / alanine aminotransferase (alt/sgpt) / alanine aminotransferase (alt/sgpt) + systemic / clinical chemistry / …
rat [11] = settings: Subchronic oral toxicity in rodents, fischer, Gavage/Intubation, dose end: 14 week, group: systemic
rat [12] = settings: Combined chronic toxicity/carcinogenicity; fischer; Oral; Gavage/Intubation; dose end: 2 year; group: systemic; systemic / in life observation / body weight / body weight gain
mouse [13] = settings: Prenatal developmental toxicity study, other, Injection, Intraperitoneal, dose end: 13 GD
mouse [14] = settings: Carcinogenicity, b6c3f1, Oral, Gavage/Intubation, dose end: 2 year, group: systemic
rat [15] = settings: Subchronic oral toxicity in rodents, fischer, Feed, dose end: 14 week, group: systemic
mouse [16] = settings: Prenatal developmental toxicity study, cd1, Oral, Water, dose end: 15 GD
mouse [17] = settings: Subchronic oral toxicity in rodents, b6c3f1, Gavage/Intubation, dose end: 14 week, group: systemic
rat [18] = settings: Prenatal developmental toxicity study, sprague dawley, Oral, Feed, dose end: 15 GD
rabbit [19] = settings: Prenatal developmental toxicity study, other, Injection, Intravenous, dose end: 18 GD
mouse [20] = settings: Subchronic oral toxicity in rodents, b6c3f1, Feed, dose end: 14 week, group: systemic
rat [21] = settings: Subchronic oral toxicity in rodents, sprague dawley, Gavage/Intubation, dose end: 90 day, group: systemic, systemic / in life observation / body weight / body weight + systemic / in life observation / body weight / body weight gain
rat [22] = settings: Subchronic dermal toxicity, sprague dawley, Topical, dose end: 90 day, group: systemic, systemic / pathology microscopic / liver / hypertrophy
rat [23] = settings: Prenatal developmental toxicity study, sprague dawley, Oral, Gavage/Intubation, dose end: 15 GD
[24] = systemic / in life observation / body weight / body weight + systemic / in life observation / body weight / body weight gain
[25] = systemic / in life observation / body weight / body weight + systemic / in life observation / body weight / body weight gain + systemic / …
[26] = systemic / in life observation / body weight / body weight + systemic / organ weight / liver / absolute + systemic / organ weight / liver / …
[27] = group: developmental, developmental / developmental malformation / bone / supernumerary
[28] = group: developmental, developmental / developmental malformation / bone / supernumerary + developmental / developmental malformation / bone / short supernumerary…
[29] = group: maternal, systemic / in life observation / body weight / body weight gain + systemic / in life observation / food consumption / food consumption
[30] = systemic / clinical chemistry / aspartate aminotransferase (ast/sgot) / aspartate aminotransferase (ast/sgot)
[31] = systemic / in life observation / mortality / mortality + systemic / pathology gross / mammary gland / cyst + systemic / pathology gross / …
[32] = systemic / in life observation / clinical signs / feces, discoloration
[33] = systemic / organ weight / adrenal gland / absolute + systemic / organ weight / adrenal gland / relative to body weight + systemic / organ …
[34] = systemic / hematology / mean corpuscular hemoglobin (mch) / mean corpuscular hemoglobin (mch)
[35] = group: developmental, developmental / developmental malformation / general / [other] + developmental / developmental malformation / limb / micromelia + …
[36] = group: developmental, developmental / developmental malformation / paw / digit / ectrodactyly
[37] = group: maternal, reproductive / reproductive performance / resorptions / resorptions + reproductive / offspring survival early / dead fetuses / dead fetuses
[38] = systemic / in life observation / body weight / body weight
[39] = systemic / in life observation / body weight / body weight + systemic / in life observation / clinical signs / hyperactivity
[40] = systemic / hematology / mean corpuscular (cell) volume (mcv) / mean corpuscular (cell) volume (mcv) + systemic / hematology / mean …
[41] = systemic / hematology / neutrophils / neutrophils
[42] = group: developmental, systemic / in life observation / body weight / fetal weight
[43] = group: maternal, reproductive / reproductive performance / resorptions / resorptions + systemic / in life observation / body weight / body weight gain + …
[44] = systemic / in life observation / mortality / mortality + systemic / pathology microscopic / liver / glycogen deposition + systemic / …
[45] = systemic / pathology microscopic / liver / glycogen deposition
[46] = group: maternal, reproductive / offspring survival early / litter size / litter size + systemic / in life observation / body weight / body weight gain + …
[47] = group: maternal, systemic / in life observation / water consumption / water consumption
[48] = group: developmental, developmental / developmental malformation / bone / [other] + developmental / developmental malformation / bone / supernumerary + …
[49] = group: maternal, reproductive / reproductive performance / aborted / aborted + systemic / in life observation / body weight / body weight + systemic / in …
[50] = group: developmental, developmental / developmental malformation / bone / [other] + systemic / in life observation / body weight / fetal weight
[51] = group: maternal, systemic / in life observation / body weight / body weight gain + systemic / in life observation / food consumption / food consumption + …

SMILES: CC1(C)NC(=O)NC1=O [5,5-Dimethylhydantoin]
- NEL (rat [1]; [24]): 300 mg/kg/day
- NOAEL (rat [1]; [24]): 300 mg/kg/day
- LEL (rat [1]; [25]): 1000 mg/kg/day
- LOAEL (rat [1]; [25]): 1000 mg/kg/day
- LEL (rat [2]; [26]): 1020 mg/kg/day
- LOAEL (rat [2]; [26]): 1020 mg/kg/day
- NOAEL (rat [2]; [26]): 303 mg/kg/day
- NEL (rat [2]; systemic / organ weight / kidney / absolute + systemic / organ weight / liver / absolute + systemic / organ weight / liver / relative to …): 303 mg/kg/day
- LEL (mouse [3]): 321 mg/kg/day
- LOAEL (mouse [3]): > 1010 mg/kg/day
- NEL (mouse [3]): 101 mg/kg/day
- NOAEL (mouse [3]): ≥ 1010 mg/kg/day
- LEL (rabbit [4]; [27]): 500 mg/kg/day
- LOAEL (rabbit [4]; [27]): 500 mg/kg/day
- NEL (rabbit [4]; [28]): 100 mg/kg/day
- NOAEL (rabbit [4]; [28]): 100 mg/kg/day
- LEL (rabbit [4]; [29]): 1000 mg/kg/day
- LOAEL (rabbit [4]; [29]): 1000 mg/kg/day
- NEL (rabbit [4]; [29]): 500 mg/kg/day
- NOAEL (rabbit [4]; [29]): 500 mg/kg/day
- LEL (rat [5]; [30]): 100 mg/kg/day
- NEL (rat [5]; [30]): < 100 mg/kg/day
- LOAEL (rat [5]; [31]): 1000 mg/kg/day
- NOAEL (rat [5]; [31]): 320 mg/kg/day
- LEL (rat [6]): 1050 mg/kg/day
- LOAEL (rat [6]): > 1050 mg/kg/day
- NEL (rat [6]): 100 mg/kg/day
- NOAEL (rat [6]): ≥ 1050 mg/kg/day
- LEL (mouse [7]): 1000 mg/kg/day
- LOAEL (mouse [7]): 1000 mg/kg/day
- NEL (mouse [7]): 300 mg/kg/day
- NOAEL (mouse [7]): 300 mg/kg/day
- LEL (dog [8]; [32]): 120 mg/kg/day
- NEL (dog [8]; [32]): < 120 mg/kg/day
- LOAEL (dog [8]; [33]): 1510 mg/kg/day
- NOAEL (dog [8]; [33]): 342 mg/kg/day

SMILES: ClNc1nc(NCl)nc(NCl)n1 [Trichloromelamine]
- LEL (rat [9]): 150 mg/kg/day
- LOAEL (rat [9]): 150 mg/kg/day
- NEL (rat [9]): 30 mg/kg/day
- NOAEL (rat [9]): 30 mg/kg/day

SMILES: Cn1c(=O)c2[nH]cnc2n(C)c1=O [Theophylline]
- LEL (dog [10]): 35 mg/kg/day
- LOAEL (dog [10]): > 70 mg/kg/day
- NEL (dog [10]): 20 mg/kg/day
- NOAEL (dog [10]): ≥ 70 mg/kg/day
- LEL (rat [11]; [34]): 37.5 mg/kg/day
- NEL (rat [11]; [34]): < 37.5 mg/kg/day
- LOAEL (rat [11]; systemic / pathology microscopic / artery (general) / polyarteritis + systemic / hematology / mean corpuscular (cell) volume (mcv) / mean …): 150 mg/kg/day
- NOAEL (rat [11]; systemic / pathology microscopic / artery (general) / polyarteritis + systemic / in life observation / body weight / body weight gain + …): 75 mg/kg/day
- LEL (rat [12]): 7.5 mg/kg/day
- LOAEL (rat [12]): 7.5 mg/kg/day
- NEL (rat [12]): < 7.5 mg/kg/day
- NOAEL (rat [12]): < 7.5 mg/kg/day
- LOAEL (mouse [13]; [35]): > 200 mg/kg/day
- NOAEL (mouse [13]; [35]): ≥ 200 mg/kg/day
- LEL (mouse [13]; [36]): 100 mg/kg/day
- NEL (mouse [13]; [36]): < 100 mg/kg/day
- NEL (mouse [13]; group: maternal, reproductive / reproductive performance / resorptions / resorptions): 150 mg/kg/day
- LEL (mouse [13]; [37]): 200 mg/kg/day
- LOAEL (mouse [13]; [37]): > 200 mg/kg/day
- NOAEL (mouse [13]; [37]): ≥ 200 mg/kg/day
- LEL (mouse [14]; [38]): 25 mg/kg/day
- LOAEL (mouse [14]; [38]): 25 mg/kg/day
- NEL (mouse [14]; [39]): 7.5 mg/kg/day
- NOAEL (mouse [14]; [39]): 7.5 mg/kg/day
- LOAEL (rat [15]; [40]): 125 mg/kg/day
- NOAEL (rat [15]; [40]): 75 mg/kg/day
- LEL (rat [15]; [41]): 75 mg/kg/day
- NEL (rat [15]; [41]): < 75 mg/kg/day
- LEL (mouse [16]; [42]): 372 mg/kg/day
- LOAEL (mouse [16]; [42]): > 396 mg/kg/day
- NEL (mouse [16]; [42]): 282 mg/kg/day
- NOAEL (mouse [16]; [42]): ≥ 396 mg/kg/day
- LEL (mouse [16]; [43]): 372 mg/kg/day
- LOAEL (mouse [16]; [43]): > 396 mg/kg/day
- NEL (mouse [16]; [43]): 282 mg/kg/day
- NOAEL (mouse [16]; [43]): ≥ 396 mg/kg/day
- LOAEL (mouse [17]; [44]): > 300 mg/kg/day
- NOAEL (mouse [17]; [44]): ≥ 300 mg/kg/day
- LEL (mouse [17]; [45]): 75 mg/kg/day
- NEL (mouse [17]; [45]): < 75 mg/kg/day
- LEL (rat [18]; [42]): 218 mg/kg/day
- LOAEL (rat [18]; [42]): > 259 mg/kg/day
- NEL (rat [18]; [42]): 124 mg/kg/day
- NOAEL (rat [18]; [42]): ≥ 259 mg/kg/day
- LOAEL (rat [18]; [46]): > 259 mg/kg/day
- NOAEL (rat [18]; [46]): ≥ 259 mg/kg/day
- LEL (rat [18]; [47]): 124 mg/kg/day
- NEL (rat [18]; [47]): < 124 mg/kg/day
- LEL (rabbit [19]; group: developmental, developmental / developmental malformation / bone / [other]): 30 mg/kg/day
- LOAEL (rabbit [19]; [48]): > 60 mg/kg/day
- NEL (rabbit [19]; [48]): 15 mg/kg/day
- NOAEL (rabbit [19]; [48]): ≥ 60 mg/kg/day
- LOAEL (rabbit [19]; [49]): > 60 mg/kg/day
- NEL (rabbit [19]; [49]): 15 mg/kg/day
- NOAEL (rabbit [19]; [49]): ≥ 60 mg/kg/day
- LEL (rabbit [19]; group: maternal, systemic / urinalysis / volume / volume): 30 mg/kg/day
- LOAEL (mouse [20]; [24]): 175 mg/kg/day
- NOAEL (mouse [20]; [24]): < 175 mg/kg/day
- LEL (mouse [20]; [25]): 175 mg/kg/day
- NEL (mouse [20]; [25]): < 175 mg/kg/day

SMILES: CC(=O)N(CCN(C(C)=O)C(C)=O)C(C)=O [Tetraacetylethylenediamine]
- LEL (rat [21]): 25 mg/kg/day
- LOAEL (rat [21]): 25 mg/kg/day
- NEL (rat [21]): < 25 mg/kg/day
- NOAEL (rat [21]): < 25 mg/kg/day
- LEL (rat [22]): 2000 mg/kg/day
- LOAEL (rat [22]): > 2000 mg/kg/day
- NEL (rat [22]): 200 mg/kg/day
- NOAEL (rat [22]): ≥ 2000 mg/kg/day
- LEL (rat [23]; [50]): 1000 mg/kg/day
- LOAEL (rat [23]; [50]): 1000 mg/kg/day
- NEL (rat [23]; [50]): 200 mg/kg/day
- NOAEL (rat [23]; [50]): 200 mg/kg/day
- LEL (rat [23]; [29]): 200 mg/kg/day
- LOAEL (rat [23]; [29]): 200 mg/kg/day
- NEL (rat [23]; [51]): 40 mg/kg/day
- NOAEL (rat [23]; [51]): 40 mg/kg/day
